Results reported in US20230081539A1, “SUPRACHOROIDAL DELIVERY OF DRUG PARTICLES TO REDUCE TOXICITY” (The Johns Hopkins University, priority 2020, published 2023).

What was measured:
[1] = test system: choroidal NV at Bruch's membrane rupture sites; assay: Mouse CNV model, intravitreous injection of free ACF or PRF; format: in vivo, C57BL/6 mice; settings: mice, 1 μl intravitreous injection of 50 ng immediately after rupture of Bruch's membrane, read after seven days
Procedure: Seven days after rupture of Bruch's membrane, mice were euthanized, eyecups were fixed and stained with FITC-labeled Griffonia Simplicifolia lectin (GSA, Vector Laboratories, Burlingame, Calif.), and flat mounted. The area of choroidal NV at each Bruch's membrane rupture site was measured by image analysis by an observer masked with respect to treatment group. The area of choroidal NV at the 3 rupture sites in one eye was averaged to give one experimental value for each animal. […] One week after rupture of Bruch's membrane, choroidal flat mounts were stained with FITC-Griffonia simplicifolia lectin.

HIF-2 = HIF-2 (Homo sapiens, UniProt Q99814); settings: in vitro; cited from earlier work
HIF-1 = HIF-1 (Homo sapiens, UniProt Q16665); settings: in vitro; cited from earlier work
[2] = Pharmacokinetics in rats: TRF and PRF in ocular tissues by LC-MS/MS after suprachoroidal PLGA-ACF MPs
Procedure: The injection site was marked in each eye. Six rats were euthanized at each of the following time points after injection: 1 and 2 weeks, and 1, 2, 3, and 4 months. After removal of the anterior segment and lens of each eye, the retina and RPE/choroid/sclera were dissected and cut in half along the horizontal meridian through the optic nerve head and frozen separately. Samples were analyzed for acriflavine and proflavine by liquid chromatography with tandem mass spectrometry (LC-MS/MS). Tissue samples were homogenized in 200 μl of methanol and homogenized with Next Advance Bullet Blender. The analytes were extracted from 25 μl of homogenized tissue with 250 μl of acetonitrile containing internal standard (5 ng/ml of acridine orange). Samples were centrifuged and the top layer was transferred to an auto sampler vial for LC/MS/MS analysis.
Mobile phase A was water containing 0.1% formic acid and mobile phase B was acetonitrile containing 0.1% formic acid. The gradient started with mobile phase B held at 50% for 1 minute and increased to 100% over 0.5 minutes; 100% mobile phase B was held for 1.5 minutes and then returned back to 50% mobile phase B and allowed to equilibrate for 1 minute. […] The column effluent was monitored using a Sciex 4500 triple quadrupole mass spectrometer with electrospray ionization operating in positive mode. […]

HIF-2, sequence (Q99814 whole entry): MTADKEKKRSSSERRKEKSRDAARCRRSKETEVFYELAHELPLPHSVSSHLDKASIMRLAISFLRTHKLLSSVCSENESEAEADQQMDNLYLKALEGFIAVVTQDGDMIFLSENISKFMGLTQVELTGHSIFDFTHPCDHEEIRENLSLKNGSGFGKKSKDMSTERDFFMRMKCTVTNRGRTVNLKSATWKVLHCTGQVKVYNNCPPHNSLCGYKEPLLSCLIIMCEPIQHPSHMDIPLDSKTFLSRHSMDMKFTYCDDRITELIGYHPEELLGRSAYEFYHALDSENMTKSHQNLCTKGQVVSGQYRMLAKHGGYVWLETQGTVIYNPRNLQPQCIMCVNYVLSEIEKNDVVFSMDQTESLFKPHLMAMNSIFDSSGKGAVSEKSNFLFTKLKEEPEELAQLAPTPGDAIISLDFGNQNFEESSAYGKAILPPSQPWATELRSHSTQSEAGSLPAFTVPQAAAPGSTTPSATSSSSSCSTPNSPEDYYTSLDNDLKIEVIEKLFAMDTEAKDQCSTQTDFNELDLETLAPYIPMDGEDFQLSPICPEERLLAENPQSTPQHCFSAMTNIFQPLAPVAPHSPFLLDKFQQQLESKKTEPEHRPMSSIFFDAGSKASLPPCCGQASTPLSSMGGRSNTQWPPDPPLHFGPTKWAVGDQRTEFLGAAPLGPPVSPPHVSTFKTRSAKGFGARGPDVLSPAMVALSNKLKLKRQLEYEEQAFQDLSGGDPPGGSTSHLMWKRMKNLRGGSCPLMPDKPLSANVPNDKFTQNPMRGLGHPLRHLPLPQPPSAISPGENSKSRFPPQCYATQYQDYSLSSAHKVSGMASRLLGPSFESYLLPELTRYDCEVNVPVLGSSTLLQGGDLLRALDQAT
HIF-1, sequence (Q16665 whole entry): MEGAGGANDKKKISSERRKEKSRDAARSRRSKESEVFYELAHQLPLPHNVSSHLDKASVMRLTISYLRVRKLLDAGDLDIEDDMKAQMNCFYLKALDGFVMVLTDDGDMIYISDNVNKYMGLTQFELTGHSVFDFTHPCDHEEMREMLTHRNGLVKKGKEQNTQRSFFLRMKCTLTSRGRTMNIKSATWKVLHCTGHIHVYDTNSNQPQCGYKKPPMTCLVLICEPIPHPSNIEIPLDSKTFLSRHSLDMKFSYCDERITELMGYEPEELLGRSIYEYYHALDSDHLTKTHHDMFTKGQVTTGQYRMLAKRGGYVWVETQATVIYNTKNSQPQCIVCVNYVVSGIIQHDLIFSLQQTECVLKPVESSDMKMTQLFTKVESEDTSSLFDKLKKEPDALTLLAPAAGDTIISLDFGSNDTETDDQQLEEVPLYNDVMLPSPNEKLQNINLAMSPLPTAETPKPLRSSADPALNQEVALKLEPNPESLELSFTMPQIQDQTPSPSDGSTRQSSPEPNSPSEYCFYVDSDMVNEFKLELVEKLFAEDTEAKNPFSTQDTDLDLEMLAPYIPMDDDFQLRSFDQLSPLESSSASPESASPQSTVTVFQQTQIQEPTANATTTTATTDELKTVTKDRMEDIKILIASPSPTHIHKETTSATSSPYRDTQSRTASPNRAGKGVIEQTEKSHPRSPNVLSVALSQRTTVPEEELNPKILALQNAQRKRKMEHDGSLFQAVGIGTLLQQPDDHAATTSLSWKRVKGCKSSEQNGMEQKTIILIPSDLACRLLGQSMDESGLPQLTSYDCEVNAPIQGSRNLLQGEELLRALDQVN

Compound	area of CNV at Bruch's membrane rupture sites compared with PBS [1]	concentration that inhibits the transcriptional activity of HIF-2 (HIF-2)	concentration that inhibits the transcriptional activity of HIF-1 (HIF-1)	also measured
3,6-diamino-10-methylacridinium chloride mixed with 3,6-acridinediamine [ACF]	statistically significant reduction	nanomolar	nanomolar	
Nc1ccc2cc3ccc(N)cc3nc2c1 [PRF, proflavine]	almost identical to that of eyes treated with PBS			
C[n+]1c2cc(N)ccc2cc2ccc(N)cc21.[Cl-] [TRF, trypaflavine]				duration of steady-state levels in the low nM range in RPE/choroid and retina ([2]; suprachoroidal PLGA-ACF MPs): at least 16 weeks; steady-state level in inferior retina ([2]; suprachoroidal PLGA-ACF MPs containing 10 μg ACF, 2 through 16 weeks): ~0.1 nM
C[C@H]1O[C@@H](O[C@H]2[C@@H](O)C[C@H](O[C@H]3[C@@H](O)C[C@H](O[C@H]4CC[C@@]5(C)[C@H](CC[C@@H]6[C@@H]5C[C@@H](O)[C@]5(C)[C@@H](C7=CC(=O)OC7)CC[C@]65O)C4)O[C@@H]3C)O[C@@H]2C)C[C@H](O)[C@@H]1O [digoxin]		nanomolar		
C[C@@H]1O[C@@H](O[C@H]2C[C@@H](O)[C@]3(CO)[C@H]4[C@H](O)C[C@]5(C)[C@@H](C6=CC(=O)OC6)CC[C@]5(O)[C@@H]4CC[C@]3(O)C2)[C@H](O)[C@H](O)[C@H]1O [ouabain]		nanomolar		
C[C@@H]1O[C@@H](O[C@@H]2C=C3CC[C@@H]4[C@H](CC[C@]5(C)[C@@H](c6ccc(=O)oc6)CC[C@]45O)[C@@]3(C)CC2)[C@H](O)[C@H](O)[C@H]1O [proscillaridin A]		nanomolar	nanomolar	
